Experimental data from the NIST ThermoML archive (doi:10.1016/j.tca.2013.05.030).
± gives the expanded uncertainty stated by the source.

Assay: mn = molality of the nth substance listed, in mol/kg
Settings: 101 kPa, Liquid; for viscosity: Capillary tube (Ostwald / Ubbelohde) method; for mass density: Pycnometric method; for speed of sound: Sing-around technique in a fixed-path interferometer

CC(C)Cc1ccc(C(C)C(=O)[O-])cc1.[Na+] (stereo not given) [sodium ibuprofen] + O
Settings	mass density [kg/m3]	speed of sound [m/s]	viscosity [mPa·s]
298.15 K, m1 = 0.1048	1001.4 ± 0.3	1512.8 ± 1	0.973 ± 0.009
298.15 K, m1 = 0.1525	1003.2 ± 0.3	1518.4 ± 1	1.007 ± 0.009
298.15 K, m1 = 0.2231	1005.8 ± 0.3	1525.6 ± 1	1.07 ± 0.01
298.15 K, m1 = 0.3179	1009.1 ± 0.4	1533.2 ± 1	1.173 ± 0.011
298.15 K, m1 = 0.3721	1010.9 ± 0.4	1536.4 ± 1	1.242 ± 0.011
298.15 K, m1 = 0.4422	1013.1 ± 0.4	1540 ± 1	1.342 ± 0.012
298.15 K, m1 = 0.4678	1013.9 ± 0.4	1540.8 ± 1	1.381 ± 0.012
303.15 K, m1 = 0.1048	999.9 ± 0.4	1523.6 ± 1	0.867 ± 0.008
303.15 K, m1 = 0.1525	1001.7 ± 0.4	1528.4 ± 1	0.897 ± 0.008
303.15 K, m1 = 0.2231	1004.3 ± 0.4	1534.4 ± 1	0.953 ± 0.009
303.15 K, m1 = 0.3179	1007.5 ± 0.4	1540.8 ± 1	1.043 ± 0.01
303.15 K, m1 = 0.3721	1009.3 ± 0.4	1543.2 ± 1	1.104 ± 0.01
303.15 K, m1 = 0.4422	1011.5 ± 0.4	1546.4 ± 1	1.194 ± 0.011
303.15 K, m1 = 0.4678	1012.3 ± 0.4	1547.2 ± 1	1.228 ± 0.011
308.15 K, m1 = 0.1048	998.2 ± 0.4	1532 ± 1	0.78 ± 0.007
308.15 K, m1 = 0.1525	1000 ± 0.4	1536.4 ± 1	0.808 ± 0.007
308.15 K, m1 = 0.2231	1002.5 ± 0.4	1542 ± 1	0.857 ± 0.008
308.15 K, m1 = 0.3179	1005.7 ± 0.4	1548 ± 1	0.937 ± 0.009
308.15 K, m1 = 0.3721	1007.4 ± 0.4	1550.8 ± 1	0.992 ± 0.009
308.15 K, m1 = 0.4422	1009.6 ± 0.4	1553.6 ± 1	1.072 ± 0.01
308.15 K, m1 = 0.4678	1010.4 ± 0.4	1554.4 ± 1	1.104 ± 0.01
313.15 K, m1 = 0.1048	996.3 ± 0.4	1539.2 ± 1	0.707 ± 0.007
313.15 K, m1 = 0.1525	998 ± 0.4	1542.8 ± 1	0.732 ± 0.007
313.15 K, m1 = 0.2231	1000.5 ± 0.4	1547.6 ± 1	0.777 ± 0.007
313.15 K, m1 = 0.3179	1003.6 ± 0.4	1552.8 ± 1	0.848 ± 0.008
313.15 K, m1 = 0.3721	1005.3 ± 0.4	1555.2 ± 1	0.898 ± 0.008
313.15 K, m1 = 0.4422	1007.4 ± 0.4	1557.2 ± 1	0.969 ± 0.009
313.15 K, m1 = 0.4678	1008.1 ± 0.4	1558 ± 1	0.997 ± 0.009

O [water] + CC(C)Cc1ccc(C(C)C(=O)[O-])cc1.[Na+]
Settings	speed of sound [m/s]
313.15 K, m2 = 0	1528.8 ± 1
